Measurements: patent US11850266B2, “Cardiomyocytes and compositions and methods for producing the same” (President and Fellows of Harvard College, priority 2019, dated 2023)

Assays:
Type in all cases: cell-based, human
[1] = tested on: iPSC-derived cardiomyocytes; assay: Spontaneous beating rate of cardiomyocytes; settings: FIG. 29
Method: (§1) The BJRiPS cell line was used to generate preliminary data. BJRiPS cells were differentiated into cardiomyocytes according to previously published protocols (6). After the onset of beating (around day 10), cardiomyocytes were treated with vehicle (DMSO) or different concentrations of rapamycin, Torin1, or Torin2 for different time periods. Beating rate was counted manually. Some cells were harvested after 5-7 days of treatment for flow cytometry analysis. Other cells were harvested after 7 days of treatment for qPCR.

[2] = tested on: BJRiPS-derived cardiomyocytes; assay: Example 3 preliminary qPCR of maturation genes in BJRiPS-derived cardiomyocytes; settings: preliminary data, after differentiation
Method: as §1

[3] = tested on: iPSC-derived cardiomyocytes; assay: Calcium transients (Fluo-4 AM) analysis with Vala Kinetic Image Cytometer; settings: isoproterenol 1 μM, FIG. 14
Method: To perform calcium transients analysis, 50 ul of 10 ug/ml Hoeschst 33258 and 5 μM Fluo-4 AM was added to each well of a 96 well plate and incubated for 10 minutes at 37 degrees. Media was replaced with RPMI without phenol red supplemented with 1:100 Oxyfluor and 10 uM sodium lactate. Isoproterenol (1 μM) was added to the media for isoproterenol experiments. Pacing protocol was 5 seconds delay without pacing followed by 5 seconds pacing at 1 Hz and 5 seconds imaging without pacing. Imaging was performed using the Vala Kinetic Image Cytometer at 30 fps with 33.30 ms exposure at 14.25 intensity. Stimulation pulse was 5 ms with 15V voltage. Data was collected by CyteSeer analysis program.

[4] = tested on: TNNT2+ iPSC-derived cardiomyocytes; assay: Cell cycle analysis by flow cytometry (Hoechst 33342 / pyronin Y) of TNNT2+ cardiomyocytes
Method: (§2) To prepare for differentiation, iPSCs were plated at a density between 20,000 to 80,000 cells (depending on the cell line) per well of a 12-well plate at four days prior to onset of differentiation. Cells were differentiated according to the protocol previously described by Lian et al. with some modifications (FIG. 1A) (1). Basal media was changed from StemFlex to RPMI/B27 on day 0 of differentiation. The GSK3 inhibitor, CHIR99021 (6 μM), was added for 48 hours from day 0 to day 2 of differentiation when cells were approximately 70-80% confluent. The Wnt antagonist IWP4 (5 μM) was added from days 2 to 4 of differentiation. Insulin (10 μg/ml) was added to the media starting on day 7 of differentiation, and media was changed every 2-3 days. In general, higher purity (TNNT2+) cardiomyocytes were observed when beating initiated prior to day 10 of differentiation, therefore only batches with onset of beating between days 7-10 of differentiation were included in this study. Beating cardiomyocytes were treated with Torin1 (200 nM, unless otherwise noted) or vehicle (0.02% dimethylsulfoxide (DMSO)) beginning at ˜2 days after onset of beating for 7 days (media changed with fresh Torin1 or DMSO every 2-3 days), unless otherwise noted. After Torin1 treatment, media was switched back to RPMI/B27/insulin and maintained with media change every 2-3 days until endpoint assay. In a few assays, fatty acids were added in the form of chemically defined lipids (Gibco) diluted 1:1000 simultaneous with Torin1 treatment. In some other assays, fetal bovine serum (10% FBS) was added to cells after completion of Torin treatment for 2-4 days.
Cells were dissociated and 5×10^5 to 1×10^6 cells were used per condition. For cell cycle analysis, 5×10^5 cells per condition were fixed in 70% cold ethanol for at least 2 hours to overnight at −20 degrees C. Cells were stained first with AlexaFluor 647-TNNT2 in Permeabilization Buffer (Thermo) then with Hoechst 33342 (2 μg/ml) and pyronin Y (4 μg/ml) for 20 minutes to distinguish between cells in G0, G1, and S-G2-M phases. For other stains, cells were fixed in eBioscience Intracellular Fixation buffer for 30 minutes followed washing twice in eBioscience Permeabilization Buffer and stained with the appropriate primary antibody (Table 2) in eBioscience FACS Staining buffer for 30-60 minutes. If a secondary antibody was used, cells were incubated with the appropriate secondary antibody (Table 2) for 30-60 minutes. The geometric mean fluorescence intensity (MFI) was quantified for TNNT2 and Kir2.1 antibodies. Data were acquired via a BD LSRII instrument and analyzed using FlowJo software.

[5] = tested on: iPSC-derived cardiomyocytes; assay: Western analysis of protein expression in iPSC-derived cardiomyocytes
Method: as §2
Cells were lysed with lysis buffer (1% Triton X, 0.35% Na-deoxycholate, 1 mM EDTA, 1% protease inhibitor cocktail (Sigma), 1% phosphatase inhibitor cocktail 2 (Sigma), 1% phosphatase inhibitor cocktail 3 (Sigma), 1 mM phenylmethylsulfonyl fluoride (PMSF)) and total protein was measured with the Pierce BCA Protein Assay Kit. Samples with equal total protein quantities (prepared in Laemmli Sample Buffer (Bio-Rad)) were loaded into a Mini-Protean TGX Precast Gel (Bio-Rad) and electrophoresed for 1 hour at 100 V before transfer to a PVDF membrane using the Trans-Blot Turbo Transfer System (Bio-Rad). The Precision Plus Protein Dual Color Standards molecular weight ladder was used to estimate molecular weight of detected bands (Bio-Rad). Membranes were blocked with 5% milk or bovine serum albumin then incubated with the primary antibody (Table 2) overnight at 4 degrees C. followed by incubation with the horseradish peroxidase-conjugated secondary antibody (Table 2) for 1 hour at room temperature. The Amersham ECL Western Blotting Detection kit was used to detect the protein signal by chemiluminescence, and band densities were quantified using ImageJ software (NIH).

[6] = pifithrin-α 10 μM with Torin1 200 nM, 7 days, FIG. 5B

Nc1ccc(-c2ccc3ncc4ccc(=O)n(-c5cccc(C(F)(F)F)c5)c4c3c2)cn1 [Torin2]
beating rate of cardiomyocytes ([1]; Torin1 10, 50, 200 nM, Torin2 200 nM, from day 11 for 4-5 days): decreased the beating rate
beating rates at 1 week ([1]; dose-dependent, BJRiPS-CMs): significantly decreased beating rates
RNA expression of markers of maturation including TNNI3 and KCNJ2 [2]: increased RNA expression

CC(C)NCC(O)c1ccc(O)c(O)c1 (stereo not shown) [isoproterenol]
calcium peak rise time, peak decay time and FWHM time with isoproterenol stimulation [3]: further decreases

COc1ccc(C2=N[C@@H](c3ccc(Cl)cc3)[C@@H](c3ccc(Cl)cc3)N2C(=O)N2CCNC(=O)C2)c(OC(C)C)c1 [nutlin-3a]
percentage of quiescent (G0) TNNT2+ cardiomyocytes versus control ([4]; nutlin-3a 10 μM 24 hours, Torin1 200 nM 7 days, or both, BJRiPS-CMs, FIG. 6B): increased the percentage of quiescent (G0) TNNT2+ cardiomyocytes
percentage of TNNT2+ cardiomyocytes in G1 phase versus control ([4]; nutlin-3a 10 μM 24 hours, Torin1 200 nM 7 days, or both, FIG. 6B): decreased the percentage of TNNT2+ cardiomyocytes in G1 phase
p53 and TNNI3 protein expression ([5]; nutlin-3a 10 μM 24 hours, independently of Torin1, FIG. 6C): increased p53 and TNNI3 protein expression

Cc1ccc(C(=O)Cn2c3c(sc2=N)CCCC3)cc1 [pifithrin-α]
percentage of cardiomyocytes in the cell cycle (G1, S/G2/M) versus Torin1 alone [4, 6]: increased the percentage of cardiomyocytes in the cell cycle
percentage of quiescent (G0) cardiomyocytes versus Torin1 alone [4, 6]: decreased the percentage of quiescent (G0) cardiomyocytes
Torin1-induced increase in p53 and TNNI3 protein ([5]; pifithrin-α 10 μM with Torin1 200 nM, 7 days, FIGS. 5C-5D): inhibited the Torin1-induced increase in both p53 and TNNI3
